Source: paper PMC7904790 (Nature Communications, 2021)
Like-named read-outs stand apart in the source and are kept apart here.

Legend:
in vitro = assay: in vitro; parameters: CellTiter-Glo viability of parental Ba/F3 cells with IL-3 (counter-screen); conditions: mouse, parental ba/f3 cells +il-3; with IL-3; read-out: IC50 parental Ba/F3 (+IL-3)
Procedure: To identify drugs that can overcome these mutations, we screened our focused 90-inhibitor library using Ba/F3 cells expressing EML4-ALK I1171N + F1174I and I1171N + L1198H. At a concentration of 50 nM, gilteritinib suppressed the viability of both wild-type (WT) and compound mutant Ba/F3 cells (Fig. 1a). Since gilteritinib has reported as multi-kinase inhibitor, we first evaluated whether the ALK inhibitory efficacy of gilteritinib is driven by on-target activity or not. As a result of western blot analysis, gilteritinib suppressed the autophosphorylation of ALK in EML4-ALK-expressing Ba/F3 cells (Fig. 1b and Supplementary Fig. 1). […] As well as Ba/F3 cell model, we verified the activity of gilteritinib to H3122 cell line that is EML4-ALK-positive NSCLC cells. […] Then, the inhibitory concentration of gilteritinib is matched between ALK phosphorylation and its downstream signals. […] Further, using the phosphoproteomics data, kinase substrate-enrichment analysis (KSEA) predicted activate kinase candidates as potential gilteritinib targets and identified ALK as the most likely regulated protein (Fig. 1e, Supplementary Figs. 3 and 4, and Supplementary Table 2).  Fig. 1 Identification of gilteritinib as an inhibitor of ALK-rearranged cancer cells. a Relative cell viability of parental (with IL-3), EML4-ALK wild-type (WT), EML4-ALK I1171N + F1174I, and EML4-ALK I1171N + L1198H Ba/F3 cells treated with 50 nM of the indicated inhibitors. Cell viability was analyzed using the CellTiter-Glo assay and calculated relative to the viability of dimethyl sulfoxide-treated Ba/F3 cells. b The suppression of phospho-ALK in I1171N + F1174I, I1171N + L1198H mutation-expressing Ba/F3 cells was evaluated using western blotting. Cells were treated with the indicated concentrations of gilteritinib for 3 h (n = 2). c The suppression of phospho-ALK and its downstream signals in H3122 parental cells and I1171N + F1174I compound mutation-expressing cells were evaluated using western blotting. […] N = 3 independent samples examined over three independent experiments and representative experiment data are presented as mean values ± SD. e Volcano plot displaying the −log10 (p-value) versus log2 (gilteritinib treatment/DMSO treatment) for all quantified phosphopeptides. The red diamond indicates phospho-ALK.

MCC-003 = assay: cells; parameters: CellTiter-Glo viability of fusion-positive human cancer cell lines; conditions: 72 h
H2228 = assay: cells; parameters: CellTiter-Glo viability of fusion-positive human cancer cell lines; conditions: Homo sapiens, NCI-H2228, 72 h
KARPAS299 = assay: cells; parameters: CellTiter-Glo viability of fusion-positive human cancer cell lines; conditions: Homo sapiens, KARPAS-299, 72 h
EML4-ALK WT = system: T1, EML4-ALK WT; assay: cells; parameters: CellTiter-Glo viability of Ba/F3 cells dependent on EML4-ALK, without IL-3; conditions: Ba/F3 EML4-ALK, 72 h
T1 construct: EML4-ALK fusion, wild-type kinase domain, expressed in Ba/F3 cells
Procedure: To identify drugs that can overcome these mutations, we screened our focused 90-inhibitor library using Ba/F3 cells expressing EML4-ALK I1171N + F1174I and I1171N + L1198H. At a concentration of 50 nM, gilteritinib suppressed the viability of both wild-type (WT) and compound mutant Ba/F3 cells (Fig. 1a). Since gilteritinib has reported as multi-kinase inhibitor, we first evaluated whether the ALK inhibitory efficacy of gilteritinib is driven by on-target activity or not. As a result of western blot analysis, gilteritinib suppressed the autophosphorylation of ALK in EML4-ALK-expressing Ba/F3 cells (Fig. 1b and Supplementary Fig. 1). […] As well as Ba/F3 cell model, we verified the activity of gilteritinib to H3122 cell line that is EML4-ALK-positive NSCLC cells. […] Then, the inhibitory concentration of gilteritinib is matched between ALK phosphorylation and its downstream signals. […] Further, using the phosphoproteomics data, kinase substrate-enrichment analysis (KSEA) predicted activate kinase candidates as potential gilteritinib targets and identified ALK as the most likely regulated protein (Fig. 1e, Supplementary Figs. 3 and 4, and Supplementary Table 2). To establish Ba/F3 cells expression WT or mutant EML4-ALK, TPM3-NTRK1, and CD74-ROS1 fusion proteins, pLenti6.3 vectors containing the cDNA of these fusion oncogenes were transfected into 293FT cells using packaging plasmids (ViraPower) for lentivirus production. Ba/F3 cells were infected using lentivirus-containing medium supplemented with polybrene (8 μg/ml), and after 24 h of incubation, the infected cells were selected using 7 μg/ml blasticidin (Invitrogen) for 1 week. After selection, each EML4-ALK-, TPM3-NTRK1-, and CD74-ROS1-expressing cell line was cultured in D-10 without IL-3. […] To stablise H3122, JFCR-028-3, MCC-003 cells expression WT or mutant EML4-ALK, KRAS G12C, cells were infected using lentivirus-containing medium supplemented with polybrene (8 μg/ml). After 24 h of incubation, the infected cells were selected using 7 μg/ml blasticidin for H3122, JFCR028-3, and 10 μg/ml for MCC-003, respectively. To stablise H3122 cells expression AXL, pHAGE-AXL vector (purchased from addgene) was transfected into 293FT cells using packaging plasmids for lentivirus production. H3122 cells were infected using lentivirus-containing medium supplemented with polybrene (8 μg/ml), and after 24 h of incubation, EGFP-positive cells were sorted using FACSMelody (BD Bioscience, San Jose, CA, USA). To stablise NIH3T3 oncogene-expressing cells, cells were infected using lentivirus-containing medium supplemented with polybrene (8 μg/ml), and after 24 h of incubation, the infected cells were selected using 2 μg/ml blasticidin for 1 week.

JFCR-018-1 = assay: cells; parameters: CellTiter-Glo viability of fusion-positive human cancer cell lines; conditions: 72 h
H3122 = assay: cells; parameters: CellTiter-Glo viability of fusion-positive human cancer cell lines; conditions: Homo sapiens, NCI-H3122, 72 h
JFCR-028-3 = assay: cells; parameters: CellTiter-Glo viability of fusion-positive human cancer cell lines; conditions: 72 h

For `CCc1cc2c(cc1N1CCC(N3CCOCC3)CC1)C(C)(C)c1[nH]c3cc(C#N)ccc3c1C2=O` [alectinib], the CC50 at 72 h (in vitro) was 899 ± 12 nM, the IC50 (MCC-003; read-out: Alectinib IC50) was 765 ± 97 nM and the IC50 (H2228; read-out: Alectinib IC50) was 3.8 ± 1.2 nM. For the same compound, the IC50 (KARPAS299; read-out: Alectinib IC50) was 43 ± 7.5 nM and the IC50 (EML4-ALK WT) was […].
In the case of `C[C@@H](Oc1cc(-c2cnn(C3CCNCC3)c2)cnc1N)c1c(Cl)ccc(F)c1Cl` [Crizotinib], the CC50 at 72 h (in vitro) is reported as 371 ± 50 nM, the IC50 (JFCR-018-1; read-out: Crizotinib IC50) is reported as 136 ± 14 nM and the IC50 (H2228; read-out: Crizotinib IC50) is reported as 28 ± 14 nM. It also gave an IC50 (KARPAS299; read-out: Crizotinib IC50) of 51 ± 5.3 nM and an IC50 (EML4-ALK WT) of […].
Work on `Cc1cc(Nc2ncc(Cl)c(Nc3ccccc3S(=O)(=O)C(C)C)n2)c(OC(C)C)cc1C1CCNCC1` [Ceritinib] yielded a CC50 at 72 h (in vitro) of 623 ± 33 nM, an IC50 (JFCR-018-1; read-out: Ceritinib IC50) of 30 ± 3 nM and an IC50 (MCC-003; read-out: Ceritinib IC50) of 74 ± 22 nM. The IC50 (H3122; read-out: Ceritinib IC50) was 15 ± 2.1 nM, the IC50 (H2228; read-out: Ceritinib IC50) was 10 ± 3.6 nM and the IC50 (JFCR-028-3; read-out: Ceritinib IC50) was 12 ± 3.3 nM. It also gave an IC50 (KARPAS299; read-out: Ceritinib IC50) of 16 ± 6.9 nM and an IC50 (EML4-ALK WT) of […].
Compound `COc1cc(N2CCC(N3CCN(C)CC3)CC2)ccc1Nc1ncc(Cl)c(Nc2ccccc2P(C)(C)=O)n1` [Brigatinib] has a CC50 at 72 h (in vitro) of 578 ± 113 nM, an IC50 (JFCR-018-1; read-out: Brigatinib IC50) of 7.7 ± 0.46 nM and an IC50 (MCC-003; read-out: Brigatinib IC50) of 63 ± 11 nM. The IC50 (H3122; read-out: Brigatinib IC50) was 7.9 ± 3.7 nM, the IC50 (H2228; read-out: Brigatinib IC50) was 3.5 ± 1 nM and the IC50 (JFCR-028-3; read-out: Brigatinib IC50) was 6.2 ± 1.5 nM. For the same compound, the IC50 (KARPAS299; read-out: Brigatinib IC50) was 7.1 ± 2 nM and the IC50 (EML4-ALK WT) was […].
